Earlier results, collected in patent US5271935A, “Antibiotic, cammunocin, a process for the preparation thereof, and the use thereof as a pharmaceutical” (Hoechst Aktiengesellschaft, priority 1988, dated 1993).

System: Gram-positive bacteria
Conditions: other known antibiotics

amphomycin
requirement for calcium ions to show an antibiotic effect: 1.0 mM
